Source: publication PMC8645997, “Population Pharmacokinetics of Polymyxin B in Obese Patients for Resistant Gram-Negative Infections” (Frontiers in Pharmacology, 2021)
Where a SMILES comes first, the peptide text is derived from it. Bridges are numbered along the chain shown (N, C = ends). [ ]: non-standard residue; d: D form. The star is where a group is joined. X1 = CC[C@H](C)CCCCC(=O)*; Dab = NCC[C@H](N)C(=O)O

Experiments:
[1] = intermediate to high protein binding; ref Sandri et al., 2013; Abodakpi et al., 2015; Avedissian et al., 2019; cited from earlier work
From the text: Obesity can cause related pathophysiological changes that could theoretically alter the PK characteristic of drugs, such as increased Vd, altered hepatic metabolism, renal CL, and protein binding. An understanding of how the Vd of a drug changes in obesity is critical because this parameter determines loading-dose selection ([Hanley et al., 2010]). Vd is affected by physicochemical property (lipophilicity or hydrophilicity), plasma protein binding rate, and tissue blood flow ([Al-Dorzi et al., 2014]; [Polso et al., 2014]). Hydrophilic drugs typically have a low Vd, poor tissue penetration, les ...

[2] = cited from earlier work
From the text: As a weight-based dosing antibiotic with a narrow therapeutic window, polymyxin B regimen in obese patients is particularly concerning. The present study developed a two-compartment model to describe the population PK profile of polymyxin B in obese patients. […] In terms of V and V2 estimates, the values varied widely between studies ([Avedissian et al., 2019]). Compared with the PK parameters reported by our group and Sandri et al, the typical V value (11.24 L, Table 2) was higher than thos ... || Obesity can cause related pathophysiological changes that could theoretically alter the PK characteristic of drugs, such as increased Vd, altered hepatic metabolism, renal CL, and protein binding. An understanding of how the Vd of a drug changes in obesity is critical because this parameter determines loading-dose selection ([Hanley et al., 2010]). Vd is affected by physicochemical property (lipophilicity or hydrophilicity), plasma protein binding rate, and tissue blood flow ([Al-Dorzi et al., 2014]; [Polso et al., 2014]). Hydrophilic drugs typically have a low Vd, poor tissue penetration, les ...

[3] = daily dose ≥250 mg; 151 patients; 95% CI 1.15–16.25, p = 0.03; ref Nelson et al., 2015; cited from earlier work
Method: From a toxicology perspective, the use of TBW-based dosing in obese patients can lead to polymyxin B overexposure and risk of acute kidney injury (AKI). In a retrospective study of 151 patients, Nelson et al. discovered that a daily dose ≥250 mg was an independent predictor of nephrotoxicity (OR 4.32, 95% CI 1.15–16.25, p = 0.03) in multivariate analysis ([Nelson et al., 2015]). […] These studies raised an important point abo ...

[4] = Population PK modeling of polymyxin B plasma concentrations in obese patients (two-compartment model, Phoenix NLME); type: in vivo, human
Method: This retrospective observational study was performed in the First Affiliated Hospital of Zhengzhou University between April 2018 and March 2021. The inclusion criteria for subjects were as follows: 1) patients ≥18 years old; 2) body mass index (BMI) ≥ 30; 3) patients had received intravenous polymyxin B (sulfate; polymyxin B for injection, Shanghai First Biochemical Pharmaceutical Co., Ltd.) for MDR Gram-negative infections; 4) blood sampling at steady state for therapeutic drug monitoring (TDM) was available. Subjects were excluded if 1) patients with continuous renal replacement therapy (CRRT) or extracorporeal membrane oxygenation (ECMO); 2) concentrations were below the lower limit of quantitation. The study protocols were approved by Zhengzhou University Medical Research and Ethics Committee (2021-KY-0441).
Polymyxin B was given to all patients empirically with a 100–200 mg loading dose and a 50–100 mg maintenance dose twice daily. The routine infusion time was at least 1 hour. Polymyxin B treatment, including dosage, infusion time, and treatment course, was determined by their medical teams. Sampling procedures included the following two categories.
From April 2018 to May 2019, 4-7 blood samples (mainly C0h, C1h, C1.5h, C2h, C4h, C6h, and C8h) were collected on day 4 to calculate the area under the concentration across 12 h at steady state (AUCss,12h). From June 2019 to March 2021, according to our previous study, a 2-point model using the limited sampling strategy was a practical approach to estimating polymyxin B AUCss,12h. Therefore, two blood samples (C0h and C2h) were collected. The infusion time was 1 hour ([Wang et al., 2020c]).
Blood samples were immediately centrifuged at 3,500 × g for 10 min. The supernatant was collected and then stored at −80°C until analysis. Polymyxin B concentrations (i.e., the polymyxin B1 concentration plus the polymyxin B2 concentration) were analyzed using a validated high-performance liquid chromatography-mass spectrometry method published by our laboratory ([Wang et al., 2020b]). As previously reported, the assay was linear over 0.2–10.0 μg/ml for polymyxin B1 and 0.05–2.5 μg/ml for polymyxin B2. The intra- and inter-batch assay precision (RSD) ranged from 0 to 13.93% for quality control samples, and their corresponding accuracy (% relative error) ranged from −11.56 to 11.13% ([Wang et al., 2020b]). Since polymyxin B1 and B2 had similar structures, molecular weight, pharmacological activities, and pharmacokinetic characteristics, the plasma concentration of polymyxin B was summed to derive the total polymyxin B1 and B2 concentrations ([Tam et al., 2011]; [Manchandani et al., 2016]).
Population PK modeling process was performed with the Phoenix® NLME software (v7.0, Pharsight, Mountain View, CA, USA). In brief, different PK models (one-, two-, or three-compartment models) were compared using the first-order conditional estimation-extended least-squares (FOCE ELS) method. The inter-individual variability (IIV) of PK parameters was assumed by additive, proportional, or mixed (additive plus proportional) models. The coefficient of variation (CV), the distribution of residuals in diagnostic plots, and the likelihood ratio test (-2 loglikelihood; -2LL) were used to evaluate the model. Following the basic structural modeling step, a stepwise process was used to consider several covariates, including age, TBW, BMI, IBW, ABW, sex, SOFA score, CrCL, adjusted CrCL, ideal CrCL, serum creatinine, and GFR. A drop >6.63 (p = 0.01) of objective function value (OFV; -2LL) for forward addition and an increase of OFV >10.83 (p = 0.001) for backward elimination were the inclusion criteria for covariates. After covariate selection, based on the scatter plot and ΔOFV (a drop of OFV >6.63), the relevant correlation between random effects was also explored.
For model evaluation, the goodness-of-fit (GOF) plots were used to evaluate the reliability of the final model. […]

[5] = obese patients, n = 26, iv, steady state

CC[C@H](C)CCCCC(=O)N[C@@H](CCN)C(=O)N[C@H](C(=O)N[C@@H](CCN)C(=O)N[C@H]1CCNC(=O)[C@H]([C@@H](C)O)NC(=O)[C@H](CCN)NC(=O)[C@H](CCN)NC(=O)[C@H](CC(C)C)NC(=O)[C@@H](Cc2ccccc2)NC(=O)[C@H](CCN)NC1=O)[C@@H](C)O [polymyxin B] (X1-[Dab]T[Dab][Dab][Dab][dF]L[Dab][Dab]T; lactam 4-C)
protein binding [1]: 58–90%
Vd ([2]; low to intermediate Vd, ref Sandri et al., 2013, Abodakpi et al., 2015, Avedissian et al., 2019): 6.3 to 47.2 L
typical CL value, previous reports ([2]; previous reports, ref Avedissian et al., 2019): 1.87 to 2.63 L/h
V2 value, reported previously ([2]; ref Sandri et al., 2013, Wang et al., 2020c, 2021): 10.57 to 11.97 L
typical V value, reported previously ([2]; reported by our group and Sandri et al, ref Sandri et al., 2013, Wang et al., 2020c, Wang et al., 2021): 6.22 to 6.98 L
OR of nephrotoxicity (independent predictor, multivariate analysis) [3]: 4.32
tvCL, bootstrap median ([4]; bootstrap, 1,000 samples): 2.73
tvQ, bootstrap median ([4]; bootstrap, 1,000 samples): 7.71
tvV2, bootstrap median ([4]; bootstrap, 1,000 samples): 40.46
tvV, bootstrap median ([4]; bootstrap, 1,000 samples): 11.46
tvV, typical value of central compartment distribution volume (V), final model estimate ([4]; obese patients (BMI >=30), n = 26, 142 plasma concentrations, iv, steady state): 11.24 L
tvCL, central compartment clearance, final model estimate [4, 5]: 2.86 L/h
tvQ, inter-compartmental clearance, final model estimate [4, 5]: 7.36
tvV2, peripheral compartment distribution volume, final model estimate [4, 5]: 39.70 L
